Reference: patent publication US12421212B2, “Substituted benzenecarboxamides as IL-17A modulators” (DiCE Alpha, Inc., priority 2019, dated 2025)

What follows are compounds tested against T1, IL-17A/A (Homo sapiens, UniProt Q16552) (assay: IL-17A/A HEK-Blue Cell Assay). Conditions: HEK-Blue IL-17A reporter cell line, SEAP readout at A630, 20 hours incubation with IL-17A/A; top concentration 10 uM, 1 uM or 0.3 uM.
T1 construct: purchased Genscript Z03228
T1 sequence (Q16552 24-155): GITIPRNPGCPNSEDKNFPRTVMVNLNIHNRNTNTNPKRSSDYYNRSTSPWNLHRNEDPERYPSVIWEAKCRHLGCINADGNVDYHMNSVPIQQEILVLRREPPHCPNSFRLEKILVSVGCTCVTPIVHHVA
Assay type: cell-based

Structure (SMILES) | IL-17A/A inhibition (pIC50)
CCC(=O)N[C@H](Cc1ccc(NC(=O)[C@@H](NC(=O)c2ccnn2CC)C2CCCCC2)c(F)c1)C(=O)NCCO [Compound 752] | X2b (compounds were evaluated up to 1 uM and inhibited activity at 1 uM by less than 20%)
CCC(=O)N[C@@H](C(=O)N1CCN(C)CC1)[C@@H](C)c1ccc(NC(=O)[C@@H](NC(=O)c2csc3cncnc23)C2CCCCC2)c(F)c1 [Compound 754] | X2b (compounds were evaluated up to 1 uM and inhibited activity at 1 uM by less than 20%)
CCC(=O)N[C@H](C(=O)NC1CCOCC1)[C@@H](C)c1ccc(NC(=O)[C@@H](NC(=O)c2ccnn2CC)C2CCCCC2)c(F)c1 [Compound 757] | X2b (compounds were evaluated up to 1 uM and inhibited activity at 1 uM by less than 20%)
CCC(=O)N[C@@H](C(=O)N1CCN(C)CC1)[C@@H](C)c1ccc(NC(=O)[C@@H](NC(=O)[C@@H]2CCCN2C)C2CCCCC2)c(F)c1 [Compound 758] | X2b (compounds were evaluated up to 1 uM and inhibited activity at 1 uM by less than 20%)
CCC(=O)N[C@@H](C(=O)N1CCN(C)CC1)[C@H](C)c1ccc(NC(=O)[C@@H](NC(=O)c2ccnn2CC)C2CCCCC2)cc1 [Compound 771] | X1a (compounds were evaluated up to 10 uM and did not inhibit activity by >80%, however they showed some activity at 10 uM (less than 80% and more than 20%))
CCC(=O)N[C@H](Cc1ccc(NC(=O)[C@@H](NC(=O)c2nccn2CC)C2CCCCC2)c(F)c1)C(=O)N1CCN(C)CC1 [Compound 772] | X1a (compounds were evaluated up to 10 uM and did not inhibit activity by >80%, however they showed some activity at 10 uM (less than 80% and more than 20%))
CCC(=O)N[C@H](Cc1ccc(NC(=O)[C@@H](NC(=O)c2cc(CC(C)C)nn2CC)C2CCCCC2)c(F)c1)C(=O)N1CCN(C)CC1 [Compound 773] | X1b (compounds were evaluated up to 10 uM and inhibited activity at 10 uM by less than 20%)
CCC(=O)N[C@H](Cc1ccc(NC(=O)[C@@H](NC(=O)c2c3c(nn2CC)CCC3)C2CCCCC2)c(F)c1)C(=O)N1CCN(C)CC1 [Compound 774] | X1b (compounds were evaluated up to 10 uM and inhibited activity at 10 uM by less than 20%)
CCC(=O)N[C@H](Cc1ccc(NC(=O)[C@@H](NC(=O)c2ccnn2CC)c2ccccc2)c(F)c1)C(=O)N1CCN(C)CC1 [Compound 775] | X1b (compounds were evaluated up to 10 uM and inhibited activity at 10 uM by less than 20%)
CCC(=O)N[C@H](Cc1ccc(NC(=O)[C@@H](NC(=O)Cc2c[nH]cn2)C2CCCCC2)c(F)c1)C(=O)N1CCN(C)CC1 [Compound 776] | X1b (compounds were evaluated up to 10 uM and inhibited activity at 10 uM by less than 20%)
CCC(=O)N[C@H](Cc1ccc(NC(=O)[C@@H](NC(=O)c2c(CO)noc2C)C2CCCCC2)c(F)c1)C(=O)N1CCN(C)CC1 [Compound 777] | X1b (compounds were evaluated up to 10 uM and inhibited activity at 10 uM by less than 20%)
CCC(=O)N[C@H](Cc1ccc(NC(=O)[C@@H](NC(=O)Cc2ccc(=O)[nH]c2)C2CCCCC2)c(F)c1)C(=O)N1CCN(C)CC1 [Compound 778] | X1b (compounds were evaluated up to 10 uM and inhibited activity at 10 uM by less than 20%)
CCC(=O)N[C@H](Cc1ccc(NC(=O)[C@@H](NC(=O)c2ccc(C(=O)NC)s2)C2CCCCC2)c(F)c1)C(=O)N1CCN(C)CC1 [Compound 779] | X1a (compounds were evaluated up to 10 uM and did not inhibit activity by >80%, however they showed some activity at 10 uM (less than 80% and more than 20%))
CCC(=O)N[C@H](Cc1ccc(NC(=O)[C@@H](NC(=O)c2ccc(C(=O)NC)n2C)C2CCCCC2)c(F)c1)C(=O)N1CCN(C)CC1 [Compound 780] | X1b (compounds were evaluated up to 10 uM and inhibited activity at 10 uM by less than 20%)
CCC(=O)N[C@H](Cc1ccc(NC(=O)[C@@H](NC(=O)c2cnc(C(=O)NC)[nH]2)C2CCCCC2)c(F)c1)C(=O)N1CCN(C)CC1 [Compound 781] | X1b (compounds were evaluated up to 10 uM and inhibited activity at 10 uM by less than 20%)
CCC(=O)N[C@H](Cc1ccc(NC(=O)[C@@H](NC(=O)Cc2cccc(O)c2)C2CCCCC2)c(F)c1)C(=O)N1CCN(C)CC1 [Compound 782] | X1b (compounds were evaluated up to 10 uM and inhibited activity at 10 uM by less than 20%)
CCC(=O)N[C@H](Cc1ccc(NC(=O)[C@@H](NC(=O)c2cnc(C(=O)NCC(F)F)[nH]2)C2CCCCC2)c(F)c1)C(=O)N1CCN(C)CC1 [Compound 783] | X1b (compounds were evaluated up to 10 uM and inhibited activity at 10 uM by less than 20%)

Same assay, conditions: HEK-Blue IL-17A reporter cell line, SEAP readout at A630, 20 hours incubation with IL-17A/A; top concentration 10 uM, 1 uM or 0.3 uM; read-out: IL-17A/A inhibition (pIC50) (converted)

Structure (SMILES) | IC50 [µM]
CCC(=O)N[C@H](Cc1ccc(NC(=O)[C@@H](NC(=O)c2ccnn2CC)C2CCCCC2)c(F)c1)C(=O)N1CCCN(C)CC1 [Compound 760] | 0.1 to 10
CCC(=O)N[C@H](Cc1ccc(NC(=O)[C@@H](NC(=O)c2cncn2CC)C2CCCCC2)c(F)c1)C(=O)N1CCN(C)CC1 [Compound 761] | 0.1 to 10
CCC(=O)N[C@H](Cc1ccc(NC(=O)[C@@H](NC(=O)c2ccnn2CC)C2CCCCC2)c(Cl)c1)C(=O)N1CCN(C)CC1 [Compound 763] | 0.1 to 10
CCC(=O)N[C@H](Cc1ccc(NC(=O)[C@@H](NC(=O)c2conc2CNC(C)=O)C2CCCCC2)c(F)c1)C(=O)N1CCN(C)CC1 [Compound 764] | 0.1 to 10
CCC(=O)N[C@H](Cc1ccc(NC(=O)[C@@H](NC(=O)c2cc(Cl)nn2C)C2CCCCC2)c(F)c1)C(=O)N1CCN(C)CC1 [Compound 765] | 0.1 to 10
CCC(=O)N[C@H](Cc1ccc(NC(=O)[C@@H](NC(=O)c2ccnn2CC)C2CCCCC2)c(C)c1)C(=O)N1CCN(C)CC1 [Compound 766] | 0.1 to 10
CCC(=O)N[C@@H](C(=O)N1CCN(C)CC1)[C@@H](C)c1ccc(NC(=O)[C@@H](NC(=O)c2ccc(CNC(=O)COCC(=O)O)s2)C2CCCCC2)c(F)c1 [Compound 767] | 0.1 to 10
CCC(=O)N[C@@H](C(=O)O)[C@@H](C)c1ccc(NC(=O)[C@@H](NC(=O)c2ccnn2CC)C2CCCCCC2)c(F)c1 [Compound 768] | 0.1 to 10
CCC(=O)N[C@@H](C(=O)N1CCN(C)CC1)[C@@H](C)c1ccc(NC(=O)[C@@H](NC(=O)Cc2ccc(CC(=O)O)cc2)C2CCCCC2)c(F)c1 [Compound 769] | 0.1 to 10
CCC(=O)N[C@H](Cc1ccc(NC(=O)[C@@H](NC(=O)c2ccnn2CC)C2CCCCC2)c(F)c1)C(=O)N1CCN(C2COC2)CC1 [Compound 770] | 0.1 to 10
